pIC50: −log10 of the molar value. “Also recorded” adds a separate entry of the source.

Common to all, as to type: cell-based, human
Data set [1] concerns A2780 ovarian carcinoma cells. The data set can be described thus: MTT conversion assay, A2780. The following applies: Homo sapiens, 48 hrs treatment. On the procedure:
(§1) In particular, Enone-1 and Enone-2 were tested for cytotoxic activity in 17 cell lines representing a broad spectrum of human tumors. They include human colorectal carcinoma (Caco2, RKO, HCT15, HT29), liver (HepG2), lung (A549), ovarian carcinoma (A2780, 2780CP, AGE60, SKOV3), anaplastic large cell lymphoma (Mac1 and Mac2a), breast carcinoma (MDA-MB-231), cervical (HeLa), bladder cancer (VM-CUB-1), melanoma (BRO), and multiple myeloma (MR20).
(§2) Each assay was performed in triplicate and repeated in 2-3 independent experiments. Specifically, to measure cell survival, 20 μl of 10 mg/ml MTT (3-([…])-2,5-diphenyl tetrazolium bromide; Sigma) was added to each well and the plates were incubated at 37° C. in 5% CO2 for 3 hours. The supernatant was removed and the formed crystals were dissolved in 200 μl dimethyl sulphoxide. The plates were then analysed at 450 nm on a plate reader. Growth inhibition (reduction in survival) was calculated by expressing the differences in optical densities between treatment wells and control wells as a percentage of the control.

The test system of data set [2] is SKOV3 ovarian carcinoma cells. The data set can be described thus: MTT conversion assay, SKOV3. The following applies: Homo sapiens, SK-OV-3, 48 hrs treatment. On the procedure: as §1, §2
Data set [3] concerns AGE60 ovarian carcinoma cells. Nature of the data set: MTT conversion assay, AGE60. The settings on record: Homo sapiens, Ovarian carcinoma cell, 48 hrs treatment. On the procedure:
as §1, §2

In data set [4] the test system is RKO colorectal carcinoma cells. Nature of the data set: MTT conversion assay, RKO. The following applies: Homo sapiens, colon, 48 hrs treatment. How it is done:
as §1, §2

Data set [5] has as its system HCT15 colorectal carcinoma cells. The data set can be described thus: MTT conversion assay, HCT15. The settings on record: Homo sapiens, HCT-15, HCT15, colon, 48 hrs treatment. How it is done:
as §1, §2

The test system of a further data set is HepG2 liver cells. Nature of the data set: MTT conversion assay, HepG2. The following applies: Homo sapiens, 48 hrs treatment. On the procedure: as §1, §2
Data set [6] concerns A2780 ovarian cancer cells. The data set can be described thus: PrestoBlue cell viability assay. The following applies: Homo sapiens, 72 hrs treatment, n=3 experiments. How it is done:
The effects of Enone-1 and Enone-2 on cancer cells were confirmed using a second methodology, namely the PrestoBlue assay (PrestoBlue™ Cell Viability Reagent, Thermo Fisher, Catalog number: A13261), a cell permeable resazurin-based solution that functions as a cell viability indicator. A2780 ovarian cancer cells were plated as described above for the MTT assays and Enone drugs were added at increasing concentrations as indicated in FIG. 2. Cell viability was determined 72 hrs later following the addition of PrestoBlue, according to the manufacturer's instructions (Thermo Fisher).

A further data set concerns CDC6. The data set can be described thus: CDC6 protein (immunoblot) and RNA (RT-qPCR) levels in A2780 cells. The following applies: 2.5 μM for 6 or 14 hours. On the procedure:
(§3) FIG. 4. Effects of Enone-2 on cell cycle and on the expression levels of replication licensing factors (RLF). (A) Representative cell cycle profiles showing progressive accumulation of A2780 ovarian carcinoma cells in the G2/M phase of the cell cycle following 24 hour treatment with 2.5 or 5 μM Enone-2. Quantification of results is shown in the form of pie charts on the right. PI: propidium iodide. (B) & (C) A2780 cells were treated with 2.5 μM Enone-2 for 6 or 14 hours and analyzed for CDC6 protein levels by immunoblot (B), or RNA levels by reverse transcription qPCR (C). The RNA levels of the RLF CDT1 were also measured by qPCR (C). ***P<0.001; **P<0.01.
(§4) Replication licensing factors (RLF) such as CDC6, MCM2-MCM7, ORC and CDT1 form origins of DNA replication in the G1 phase of the cell cycle and initiate DNA replication during the S phase. CDC6 is also involved in S-M checkpoint mechanisms that ensure that the entire genome is replicated just once per cell division. Cancer cells frequently display deregulated expression of RLFs; for example, CDC6 is over-expressed in colorectal and ovarian carcinoma and is associated with poor patient prognosis. […] Because of these characteristics, RLFs are considered as novel targets for anti-cancer therapy. […]

In another data set the test system is CDT1. Nature of the data set: CDT1 RNA levels (qPCR) in A2780 cells. The settings on record: 2.5 μM for 6 or 14 hours. How it is done: as §3, §4
A further data set concerns γH2Ax. The data set can be described thus: γH2Ax immunoblot (DNA damage response marker) in A2780 cells. The following applies: 6 hrs, increasing concentrations, relative to untreated controls. On the procedure:
FIG. 9. […] A2780 cells were cultured for 6 hrs in the presence of drug concentrations as indicated. (B) Effects of siRNA targeting RPL11 (siRPL11), Chek2 (siChek2) or the unrelated luciferase (Luci) genes on RPL11 and Chek2 mRNA levels quantified by RT-PCR. (C) Effects of siRpl11 on Enone-2 and oxaliplatin (OXA)-induced p53 activation. Expression levels relative to GAPDH are indicated; untreated controls (CNT) were given the arbitrary value of 1. […] Expression levels relative to GAPDH are indicated; untreated controls (CNT) were given the arbitrary value of 1.

The test system of data set [7] is 2780CP ovarian carcinoma cells. The data set can be described thus: Combination with bortezomib in 2780CP cells. The settings on record: 2 hours bortezomib pre-treatment, then 48 hour co-culture with Enone-2. How it is done:
The arrows in the microphotographs of (A) depict 2780CP cells with apoptotic morphology following treatment with 5 nM bortezomib in combination with 0.5 μM Enone-2.
Proteasome inhibitors have been reported to enhance platinum-induced toxicity in cis-platin-resistant ovarian cancer cells. […] To address this hypothesis, 2780CP ovarian carcinoma cells were pre-treated for 2 hours with different concentrations of the proteasomal inhibitor bortezomib, a drug in clinical use, followed by a 48 hour co-culture with Enone-2.

The test system of data set [8] is A2780 ovarian carcinoma cells. The data set can be described thus: Gene expression profiling (RNAseq) of A2780 cells. From the text: FIG. 7: Schematic representation of KEGG p53 pathway-related genes and their cellular roles.
Activation of p53 occurs in response to DNA damage (so called “DNA damage response”, DDR) or ribosomal stress (RS) and conveys signals that arrest cell cycle and induce cell death.
This group entailed the following gene transcripts: ZFAND2A; KCTD10; MDM2; PLK2; DDIT3; DNAJB9; PSMD6; RYBP; PSMD10; SPSB3; PSMB8; PELI1; RNF103; DNAJB2; UBE2H; ATXN3; PSEN1; RCHY1; UBR1; ANAPC16; JKAMP; DDA1; PSMA6; TMUB2; TRIM72; SPOPL; UBE2J1; ARIH1; NPLOC4; CDC26; USP19; UFD1; TNFAIP1; PSMB6; DERL1; UBE2V2; SELENOS; PSMA1; UBE2.

Take `C[C@@]1(O)C=CC(=O)[C@H]1c1ccc(F)c2ccccc12` (stereo in doubt) [Enone-2, 5-(4-fluoronaphthalen-1-yl)-4-hydroxy-4-methylcyclopent-2-en-1-one]: the pIC50 is 6.30 in data set [1]; 6.52 in data set [2]; 5.92 in [3]; 5.92 in data set [4]; 6.05 in data set [5]; 5.52 in the data set on HepG2 liver cells. This compound also gave a pIC50 in data set [6] of 6.92. The “CDC6 RNA and protein levels” value in the data set on CDC6 is “reduce the key RLF CDC6 in a time-dependent manner at both RNA and protein levels”. Also, the “CDT1 RNA levels” value in the data set on CDT1 was “reduce CDT1 RNA levels”. In the data set with γH2Ax, the “γH2Ax induction (marker of DDR)” value is reported as “no effect relative to untreated controls”. For the same compound, the “cytotoxicity of combination with bortezomib compared to each agent alone” value in data set [7] is listed as “augmentation of cytotoxicity compared to each agent alone; also recorded: higher cytotoxicity in relation to each agent alone”. In addition, in [8] (2.5 μM for 6 hours, bioinformatic analysis), the “transcripts of proteasome-mediated ubiquitin-dependent protein catabolic process” value was “enrichment of up-regulated transcripts”. In addition, in data set [8] (2.5 μM for 6 hrs or 14 hrs), the “p53 pathway activation (gene expression profiling)” value is given as “activation of the p53 pathway”.

The record behind these values is patent US20250268844A1, “ANTICANCER AGENTS BASED ON CYCLOPENTENONES” (UNIVERSITY OF CRETE, priority 2022, published 2025).
